Key:
Experiment in all cases: relative viability (nuclei count vs DMSO), 5 days (fraction); higher = more cells survive
[1] = compound: C[C@]12O[C@H](C[C@]1(O)CO)n1c3ccccc3c3c4c(c5c6ccccc6n2c5c31)CNC4=O [Lestaurtinib] + CC(=O)Nc1cccc(-n2c(=O)n(C3CC3)c(=O)c3c(Nc4ccc(I)cc4F)n(C)c(=O)c(C)c32)c1 [Trametinib] (partner 0.02 µM)
Procedure, shortened: (§1)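 Medians of duplicate plates are given as relative viability. That measure is the nuclei count in treated wells divided by the count in vehicle wells. Counts were taken on 4× images of lung cancer cell lines in 1536-well plates, 5 days after pin-tool dosing the day after seeding with one drug alone or a fixed anchor-drug dose plus five library-drug doses (not always all listed) in √10 steps.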

[2] = compound: C1/C(=C\C2=CC=CS2)/C(=O)/C(=C/C3=CC=CS3)/C1 + O=C(c1cc(Cc2n[nH]c(=O)c3ccccc23)ccc1F)N1CCN(C(=O)C2CC2)CC1 [Olaparib] (partner 8 µM)
Procedure, shortened: as §1

TPCA-1 + Pictilisib = compound: C1=CC(=CC=C1C2=CC(=C(S2)NC(=O)N)C(=O)N)F [TPCA-1] + CS(=O)(=O)N1CCN(Cc2cc3nc(-c4cccc5[nH]ncc45)nc(N4CCOCC4)c3s2)CC1 [Pictilisib] (partner 1 µM)
Procedure, shortened: as §1

TPCA-1 + Pemetrexed = compound: C1=CC(=CC=C1C2=CC(=C(S2)NC(=O)N)C(=O)N)F [TPCA-1] + Nc1nc2[nH]cc(CCc3ccc(C(=O)N[C@@H](CCC(=O)O)C(=O)O)cc3)c2c(=O)[nH]1 [Pemetrexed] (partner 0.2 µM)
Procedure, shortened: as §1

| Cell Line | relative viability ([1]; first compound 0.005 µM) | relative viability ([1]; first compound 0.01581 µM) | relative viability ([1]; first compound 0.05 µM) | relative viability ([1]; first compound 0.1581 µM) | relative viability ([1]; first compound 0.5 µM) | relative viability ([2]; first compound 0.2 µM) | relative viability ([2]; first compound 0.6325 µM) | relative viability ([2]; first compound 2 µM) | relative viability ([2]; first compound 6.325 µM) | relative viability ([2]; first compound 20 µM) | relative viability (TPCA-1 + Pictilisib; first compound 0.04 µM) | relative viability (TPCA-1 + Pictilisib; first compound 0.1265 µM) | relative viability (TPCA-1 + Pictilisib; first compound 0.4 µM) | relative viability (TPCA-1 + Pictilisib; first compound 1.265 µM) | relative viability (TPCA-1 + Pictilisib; first compound 4 µM) | relative viability (TPCA-1 + Pemetrexed; first compound 0.04 µM) | relative viability (TPCA-1 + Pemetrexed; first compound 0.1265 µM) | relative viability (TPCA-1 + Pemetrexed; first compound 0.4 µM) | relative viability (TPCA-1 + Pemetrexed; first compound 1.265 µM) | relative viability (TPCA-1 + Pemetrexed; first compound 4 µM) |
| --- | --- | --- | --- | --- | --- | --- | --- | --- | --- | --- | --- | --- | --- | --- | --- | --- | --- | --- | --- | --- |
| NCI-H838 | 0.559 | 0.497 | 0.486 | 0.333 | 0.0966 | 0.779 | 0.752 | 0.704 | 0.714 | 0.739 | 0.547 | 0.429 | 0.452 | 0.325 | 0.387 | 0.25 | 0.225 | 0.259 | 0.264 | 0.294 |
| NCI-H2228 | 0.589 | 0.575 | 0.452 | 0.322 | 0.156 | 0.69 | 0.431 | 0.606 | 0.543 | 0.482 | 0.379 | 0.358 | 0.402 | 0.454 | 0.186 | 0.364 | 0.322 | 0.319 | 0.316 | 0.306 |
| RERF-LC-KJ | 0.946 | 0.879 | 0.736 | 0.701 | 0.478 | 0.948 | 0.956 | 0.869 | 0.724 | 0.637 | 0.533 | 0.493 | 0.561 | 0.44 | 0.466 | 0.473 | 0.474 | 0.469 | 0.524 | 0.488 |
| NCI-H661 | 0.609 | 0.633 | 0.508 | 0.607 | 0.321 | 0.757 | 0.76 | 0.712 | 0.614 | 0.81 | 0.467 | 0.325 | 0.452 | 0.347 | 0.321 | 0.931 | 0.906 | 0.931 | 0.851 | 0.97 |
| HCC-366 | 0.365 | 0.489 | 0.399 | 0.342 | 0.149 | 0.382 | 0.35 | 0.41 | 0.269 | 0.353 | 0.182 | 0.13 | 0.177 | 0.117 | 0.124 |  | 0.17 | 0.155 | 0.116 | 0.145 |
| SK-LU-1 | 0.452 | 0.476 | 0.415 | 0.384 | 0.318 | 0.427 | 0.34 | 0.541 | 0.443 | 0.514 | 0.797 | 0.465 | 0.44 | 0.436 | 0.317 | 1.03 | 0.94 | 0.986 | 0.831 | 0.73 |
| HCC-44 | 1.04 | 1.04 | 1.04 | 1.16 | 0.593 | 0.959 | 0.985 | 0.907 | 0.896 | 0.989 | 0.684 | 0.571 | 0.619 | 0.792 | 0.508 | 0.617 | 0.657 | 0.575 | 0.627 | 0.595 |
| A-427 | 0.783 | 0.807 | 0.729 | 0.344 | 0.203 | 0.802 | 0.797 | 0.762 | 0.467 | 0.786 | 0.756 | 0.591 | 0.687 | 0.626 | 0.164 | 1.01 | 0.918 | 1.11 | 1.05 | 0.388 |

From the supplement of paper PMC10307832
